In general, IC50 refers to the concentration at which inhibition is half-maximal. As a reminder, the EC50 is the midpoint of the concentration-response curve.

Assay [1] concerns the target T1, human Cot catalytic domain (30-397 amino acids) (Homo sapiens, UniProt P41279).
T1 construct: Purified recombinant human Cot catalytic domain (30-397 amino acids) was purchased from Cama Biosciences; purchased Cama Biosciences (so in the source)
The assay is described as follows: High Throughput Cot Biochemical Assay (KinEASE TR-FRET). Conditions: read-out: IC50 HTRF. In outline: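 First, purified human Cot (aa 30-397) at 5 nM phosphorylates an XL665-labeled STK3 peptide (1 μM) at 400 μM ATP, pH 7.0, 0.1% DMSO. Then a europium-conjugated phospho-specific antibody binds the product, giving the TR-FRET signal.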

Assay [2] relates to TNFα production in LPS-stimulated human monocytes. Nature of the assay: Cot Monocyte TNFα Cell Based Assay. The settings on record: read-out: EC50 TNF. The procedure, abridged: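 5,000 cells/well; cmpd 1 h, 37 °C, 0.5% DMSO final; LPS 50 pg/ml, 4 h, 37 °C; media TNFα by HTRF sandwich (cryptate/XL665), RT overnight; % control vs unstimulated/stimulated wells.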
[3] abbreviates: Cot biochemical HTRF (KinEASE TR-FRET) assay.
[4] abbreviates: Homo sapiens, Monocyte, TNFα in LPS-stimulated human monocytes.
Setting [5] is: Cot KinEASE TR-FRET (HTRF) biochemical assay, 400 μM ATP.

Read-outs that look alike come from different tables or passages of the source.

T1 sequence (P41279 30-397): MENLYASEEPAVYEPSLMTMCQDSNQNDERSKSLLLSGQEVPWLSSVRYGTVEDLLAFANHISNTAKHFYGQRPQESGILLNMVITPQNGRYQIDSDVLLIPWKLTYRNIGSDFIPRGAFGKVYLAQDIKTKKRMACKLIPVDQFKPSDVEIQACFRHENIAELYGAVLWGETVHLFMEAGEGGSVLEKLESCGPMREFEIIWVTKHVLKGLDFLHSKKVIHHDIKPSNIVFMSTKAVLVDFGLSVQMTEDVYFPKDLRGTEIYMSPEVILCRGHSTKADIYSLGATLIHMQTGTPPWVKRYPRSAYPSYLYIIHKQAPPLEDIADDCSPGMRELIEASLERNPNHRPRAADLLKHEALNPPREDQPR

In the case of `CC(C)(C)N1CCC(n2cc([C@@H](Nc3cc(Cl)c4ncc(C#N)c(NN5CCCCC5)c4c3)c3ccccc3)nn2)CC1` [Example 603, (S)-6-(((1-(1-(tert-butyl)piperidin-4-yl)-1H-1,2,3-triazol-4-yl)(phenyl)methyl)amino)-8-chloro-4-(piperidin-1-ylamino)quinoline-3-carbonitrile], the half-inhibitory concentration (IC50) in assay [1] (setting [3]) came out at 61 nM. For the same compound, the EC50 in assay [2] (setting [4]) was determined as 561 nM.
As to `[2H][C@](Nc1cc(C)c2ncc(C#N)c(N[C@H](CC)c3ccccc3)c2c1)(c1ccc(F)cc1)c1cn(C2CC2)nn1` [Example 221, 6-(((S)-(1-cyclopropyl-1H-1,2,3-triazol-4-yl)(4-fluorophenyl)methyl-d)amino)-8-methyl-4-(((R)-1-phenylpropyl)amino)quinoline-3-carbonitrile], the half-inhibitory concentration (IC50) in assay [1] (setting [5]) worked out at 244 nM. Besides, the 50% effective concentration (EC50) in assay [2] (setting [4]) was 2520 nM.
For `C[C@@H](Nc1c(C#N)cnc2c(Cl)cc(N[C@@H](c3ccccc3)c3cn(C4CCN(C(C)(C)C)CC4)nn3)cc12)c1cccc(F)c1` [Example 633, 6-(((S)-(1-(1-(tert-butyl)piperidin-4-yl)-1H-1,2,3-triazol-4-yl)(phenyl)methyl)amino)-8-chloro-4-(((R)-1-(3-fluorophenyl)ethyl)amino) quinoline-3-carbonitrile], the IC50 in assay [1] (setting [3]) was 10 nM. For the same compound, the half-maximal effective concentration (EC50) in assay [2] (setting [4]) was 1580 nM.
Regarding `CCN1CCC(n2cc(C(Nc3cc(Cl)c4ncc(C#N)c(Nc5ccc(F)c(Cl)c5)c4c3)c3cc(F)c(F)c(F)c3)nn2)CC1` (stereo not drawn) [Example 889, 8-chloro-4-((3-chloro-4-fluorophenyl)amino)-6-(((1-(1-ethylpiperidin-4-yl)-1H-1,2,3-triazol-4-yl)(3,4,5-trifluorophenyl)methyl)amino) quinoline-3-carbonitrile], in assay [1] (setting [3]), the half-inhibitory concentration (IC50) was 32 nM. Moreover, in assay [2] (setting [4]), the EC50 is 362 nM.
For `[2H]C(Nc1cc(Cl)c2ncc(C#N)c(NC(CCC#N)c3ccccc3)c2c1)(c1cn(C2CC2)nn1)c1ccccc1Cl` (stereo not drawn) [Example 88, 8-chloro-6-(((2-chlorophenyl) (1-cyclopropyl-1H-1,2,3-triazol-4-yl)methyl-d)amino)-4-((3-cyano-1-phenylpropyl)amino) quinoline-3-carbonitrile], the concentration for half-maximal inhibition (IC50) in assay [1] (setting [5]) stood at 190 nM. In assay [2] (TNFα in LPS-stimulated human monocytes), the EC50 is over 1000 nM.
With `[2H][C@](Nc1cc(Cl)c2ncc(C#N)c(NCC3(C)CC(F)(F)C3)c2c1)(c1ccc(F)cc1)c1cn(C2CC2)nn1` [Example 199, (S)-8-chloro-6-(((1-cyclopropyl-1H-1,2,3-triazol-4-yl)(4-fluorophenyl)methyl-d)amino)-4-(((3,3-difluoro-1-methylcyclobutyl)methyl)amino) quinoline-3-carbonitrile], in assay [1] (setting [5]), the IC50 is 21 nM. The EC50 in assay [2] (setting [4]) turned out to be 395 nM.
For `[2H][C@](Nc1cc(OC)c2ncc(C#N)c(NCC(C)(C)C)c2c1)(c1ccc(F)cc1)c1cn(C2CC2)nn1` [Example 172, (S)-6-(((1-cyclopropyl-1H-1,2,3-triazol-4-yl)(4-fluorophenyl)methyl-d)amino)-8-methoxy-4-(neopentylamino) quinoline-3-carbonitrile], in that order: 139 nM and 1640 nM.
With `CCN(C)C(=O)c1cccc([C@H](Nc2cc(Cl)c3ncc(C#N)c(Nc4ccc(F)c(Cl)c4)c3c2)c2cn(C3CCN(C(C)(C)C)CC3)nn2)c1` [Example 674, (S)-3-((1-(1-(tert-butyl)piperidin-4-yl)-1H-1,2,3-triazol-4-yl)((8-chloro-4-((3-chloro-4-fluorophenyl)amino)-3-cyanoquinolin-6-yl)amino)methyl)-N-ethyl-N-methylbenzamide], the IC50 in assay [1] (setting [3]) was determined as 3 nM. In addition, in assay [2] (setting [4]), the EC50 was found to be 318 nM.
Turning to `CC(C)(C)N1CCC(n2cc([C@@H](Nc3cc(Cl)c4ncc(C#N)c(Nc5cc(F)c(F)cc5F)c4c3)c3ccc(Cl)cc3)nn2)CC1` [Example 651, (S)-6-(((1-(1-(tert-butyl)piperidin-4-yl)-1H-1,2,3-triazol-4-yl)(4-chlorophenyl)methyl)amino)-8-chloro-4-((2,4,5-trifluorophenyl)amino)quinoline-3-carbonitrile], the IC50 in assay [1] (setting [3]) turned out to be 52 nM. Besides, in assay [2] (setting [4]), the half-maximal effective concentration (EC50) turned out to be 10600 nM.
Take `Cn1ccnc1C(Nc1cc(Cl)c2ncc(C#N)c(Nc3ccc(F)c(Cl)c3)c2c1)c1ccc(F)cc1` (stereo not drawn) [Example 847, 8-chloro-4-((3-chloro-4-fluorophenyl)amino)-6-(((4-fluorophenyl)(1-methyl-1H-imidazol-2-yl)methyl)amino)quinoline-3-carbonitrile]: the IC50 in assay [1] (setting [3]) worked out at 366 nM. Moreover, in assay [2] (setting [4]), the EC50 was determined as 7860 nM.
For the compound `[2H][C@@](Nc1cc(Cl)c2ncc(C#N)c(NCC(C)(C)C)c2c1)(c1cn(C2CC2)nn1)c1cccc(C#N)c1Cl` [Example 289, (S)-8-chloro-6-(((2-chloro-3-cyanophenyl)(1-cyclopropyl-1H-1,2,3-triazol-4-yl)methyl-d)amino)-4-(neopentylamino) quinoline-3-carbonitrile], the IC50 in assay [1] (setting [5]) is 4 nM. Besides, the EC50 in assay [2] (setting [4]) came out at 116 nM.
In the case of `CC(C)n1cc([C@@H](Nc2cc(Cl)c3ncc(C#N)c(Nc4ccc(F)c(Cl)c4)c3c2)c2cccc(CO)c2)nn1` [Example 713, (S)-8-chloro-4-((3-chloro-4-fluorophenyl)amino)-6-(((3-(hydroxymethyl)phenyl)(1-isopropyl-1H-1,2,3-triazol-4-yl)methyl)amino)quinoline-3-carbonitrile], in assay [1] (setting [3]), the IC50 worked out at 17 nM. Also, the EC50 in assay [2] (setting [4]) is 358 nM.
For `Cn1cc(C(Nc2cc(Cl)c3ncc(C#N)c(Nc4ccc(F)c(Cl)c4)c3c2)c2ccc(Cl)cc2)nn1` (stereo not drawn) [Example 881, 8-chloro-4-((3-chloro-4-fluorophenyl)amino)-6-(((4-chlorophenyl)(1-methyl-1H-1,2,3-triazol-4-yl)methyl)amino)quinoline-3-carbonitrile], in that order: 39 nM and 673 nM.
For `N#Cc1cnc2c(Cl)cc(N[C@@H](c3cccc(-c4ncco4)c3)c3c[nH]nn3)cc2c1Nc1cnc(F)c(F)c1` [Example 498, (S)-8-chloro-4-((5,6-difluoropyridin-3-yl)amino)-6-(((3-(oxazol-2-yl)phenyl)(1H-1,2,3-triazol-4-yl)methyl)amino) quinoline-3-carbonitrile], in assay [1] (setting [3]), the IC50 worked out at 8 nM. Besides, in assay [2] (setting [4]), the EC50 stood at 520 nM.
As for `CC(C)(C)CNc1c(C#N)cnc2c(C#N)cc(N[C@@H](c3cccc(C(=O)N4CC(O)C4)c3)c3cn(C4CC4)nn3)cc12` [Example 57, (S)-6-(((1-cyclopropyl-1H-1,2,3-triazol-4-yl) (3-(3-hydroxyazetidine-1-carbonyl)phenyl)methyl)amino)-4-(neopentylamino) quinoline-3,8-dicarbonitrile], the 50% inhibitory concentration (IC50) in assay [1] (setting [5]) turned out to be 3 nM. Also, the concentration for a half-maximal effect (EC50) in assay [2] (setting [4]) was over 1000 nM.
As to `CC1(CNc2c(C#N)cnc3c(Cl)cc(N[C@@H](c4ccccc4)c4cn(C5CCN(C(C)(C)C)CC5)nn4)cc23)CC1` [Example 455, (S)-6-(((1-(1-(tert-butyl)piperidin-4-yl)-1H-1,2,3-triazol-4-yl)(phenyl)methyl)amino)-8-chloro-4-(((1-methylcyclopropyl)methyl)amino)quinoline-3-carbonitrile], the half-inhibitory concentration (IC50) in assay [1] (setting [3]) worked out at 48 nM. In addition, the EC50 in assay [2] (setting [4]) is 171 nM.
In the case of `[2H][C@@](Nc1cc(Cl)c2ncc(C#N)c(NCC(C)(C)C)c2c1)(c1cn(CC2(O)COC2)nn1)c1ccccc1Cl` [Example 104, 8-chloro-6-(((2-chlorophenyl) (1-((3-hydroxyoxetan-3-yl)methyl)-1H-1,2,3-triazol-4-yl)methyl-d)amino)-4-(neopentylamino) quinoline-3-carbonitrile], in assay [1] (setting [5]), the IC50 stood at 23 nM. Also, the concentration giving a half-maximal response (EC50) in assay [2] (setting [4]) amounted to 584 nM.
The matching figures for `CC[C@@H](Nc1c(C#N)cnc2c(Cl)cc(N[C@@H](c3cccc(Cl)c3)c3cn(C4CC4)nn3)cc12)c1ccccc1` [Example 273, 8-chloro-6-(((S)-(3-chlorophenyl)(1-cyclopropyl-1H-1,2,3-triazol-4-yl)methyl)amino)-4-(((R)-1-phenylpropyl)amino)quinoline-3-carbonitrile]: 13 nM and 178 nM.
On to `CC[C@@H](Nc1c(C#N)cnc2c(Cl)cc(N[C@H](c3cn(C(F)(F)C(N)=O)nn3)c3ccccc3Cl)cc12)c1ccccc1` [Example 972, 2-(4-((S)-((8-chloro-3-cyano-4-(((R)-1-phenylpropyl)amino)quinolin-6-yl)amino) (2-chlorophenyl)methyl)-1H-1,2,3-triazol-1-yl)-2,2-difluoroacetamide], for which the IC50 in assay [1] (Cot KinEASE TR-FRET, 400 μM ATP) was found to be 27 nM. The 50% effective concentration (EC50) in assay [2] (Homo sapiens, Monocyte, LPS-stimulated human monocytes, TNFα TR-FRET) came to 636 nM.
Regarding `CC(C)(C)N1CCC(n2cc([C@@H](Nc3cc(Cl)c4ncc(C#N)c(Nc5cnc(F)c(Cl)c5)c4c3)c3ccccc3)nn2)CC1` [Compound 10], the half-maximal inhibitory concentration (IC50) in assay [1] (setting [5]) came out at 4 nM. For the same compound, the half-maximal effective concentration (EC50) in assay [2] (setting [4]) came out at 71 nM.
In the case of `CC(C)n1cc([C@@H](Nc2cc(Cl)c3ncc(C#N)c(Nc4ccc(F)c(Cl)c4)c3c2)c2cccc(CN(C)C)c2)nn1` [Example 712, (S)-8-chloro-4-((3-chloro-4-fluorophenyl)amino)-6-(((3-((dimethylamino)methyl)phenyl)(1-isopropyl-1H-1,2,3-triazol-4-yl)methyl)amino)quinoline-3-carbonitrile], the IC50 in assay [1] (setting [3]) was 14 nM. Also, the EC50 in assay [2] (setting [4]) amounted to 498 nM.

(Values after US10316017B2, “COT modulators and methods of use thereof” (Gilead Sciences, Inc., priority 2015, dated 2019).)
